Source: ChEMBL document CHEMBL1154071, “Studies towards the identification of putative bioactive conformation of potent vasodilator arylidene N-acylhydrazone derivatives” (Eur J Med Chem, 2009)
One block for each molecule: values may come before it. Activity calls are given as the source filed them. The calls are words filed in the database; no cut-off is given here.

Tests used:
Aorta [1] = test: Vasorelaxant activity in endothelium-intact Wistar rat thoracic aortic ring assessed as inhibition of phenylephrine-induced contraction at 200 uM; type: functional
Aorta [2] = test: Vasorelaxant activity in endothelium-denuded Wistar rat thoracic aortic ring assessed as inhibition of phenylephrine-induced contraction at 200 uM; type: functional
Aorta [3] = test: Vasorelaxant activity in endothelium-intact Wistar rat thoracic aortic ring assessed as complete inhibition of phenylephrine-induced contraction at 20 uM in intact endothelium; type: functional, tissue-based
Aorta [4] = test: Vasorelaxant activity in endothelium-intact Wistar rat thoracic aortic ring assessed as inhibition of phenylephrine-induced contraction; type: functional, tissue-based
Aorta [5] = test: Vasorelaxant activity in endothelium-denuded Wistar rat thoracic aortic ring assessed as inhibition of phenylephrine-induced contraction; type: functional, tissue-based
Aorta [6] = test: Vasorelaxant activity in endothelium-intact Wistar rat thoracic aortic ring assessed as inhibition of phenylephrine-induced contraction at 500 uM; type: functional
Aorta [7] = test: Vasorelaxant activity in endothelium-denuded Wistar rat thoracic aortic ring assessed as inhibition of phenylephrine-induced contraction at 500 uM; type: functional
Aorta [8] = test: Vasorelaxant activity in endothelium-denuded Wistar rat thoracic aortic ring assessed as inhibition of phenylephrine-induced contraction at 100 uM; type: functional
[9] = target: cGMP-specific 3',5'-cyclic phosphodiesterase (Homo sapiens) (UniProt O76074); test: Inhibition of PDE5 up to 30 uM
[10] = target: T1, 3',5'-cyclic-AMP phosphodiesterase 4B (Homo sapiens, UniProt Q07343); test: Inhibition of PDE4B up to 30 uM
T1 sequence (Q07343 whole entry): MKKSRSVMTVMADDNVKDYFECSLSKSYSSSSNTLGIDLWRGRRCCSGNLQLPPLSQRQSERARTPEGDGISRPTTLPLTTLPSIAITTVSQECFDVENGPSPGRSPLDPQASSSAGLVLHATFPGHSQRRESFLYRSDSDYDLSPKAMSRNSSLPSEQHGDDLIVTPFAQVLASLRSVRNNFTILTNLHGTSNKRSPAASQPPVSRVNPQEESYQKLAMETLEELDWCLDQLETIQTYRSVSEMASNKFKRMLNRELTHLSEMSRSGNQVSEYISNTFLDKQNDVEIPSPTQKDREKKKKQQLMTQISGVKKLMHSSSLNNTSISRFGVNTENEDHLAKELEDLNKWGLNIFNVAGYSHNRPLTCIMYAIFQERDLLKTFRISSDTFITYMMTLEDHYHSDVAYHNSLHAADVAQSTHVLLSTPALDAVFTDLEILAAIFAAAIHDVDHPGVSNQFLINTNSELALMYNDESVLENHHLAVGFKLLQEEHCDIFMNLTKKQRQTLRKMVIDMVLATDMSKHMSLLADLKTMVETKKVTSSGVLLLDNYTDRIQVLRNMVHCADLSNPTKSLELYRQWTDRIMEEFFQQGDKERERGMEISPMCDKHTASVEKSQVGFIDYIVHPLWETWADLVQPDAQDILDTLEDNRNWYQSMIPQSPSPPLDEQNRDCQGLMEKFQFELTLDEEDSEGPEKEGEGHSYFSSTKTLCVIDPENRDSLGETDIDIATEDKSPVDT

[11] = target: cGMP-dependent 3',5'-cyclic phosphodiesterase (Homo sapiens) (UniProt O00408); test: Inhibition of PDE2A up to 30 uM
Chain of cGMP-dependent 3',5'-cyclic phosphodiesterase (Homo sapiens) (O00408 whole entry): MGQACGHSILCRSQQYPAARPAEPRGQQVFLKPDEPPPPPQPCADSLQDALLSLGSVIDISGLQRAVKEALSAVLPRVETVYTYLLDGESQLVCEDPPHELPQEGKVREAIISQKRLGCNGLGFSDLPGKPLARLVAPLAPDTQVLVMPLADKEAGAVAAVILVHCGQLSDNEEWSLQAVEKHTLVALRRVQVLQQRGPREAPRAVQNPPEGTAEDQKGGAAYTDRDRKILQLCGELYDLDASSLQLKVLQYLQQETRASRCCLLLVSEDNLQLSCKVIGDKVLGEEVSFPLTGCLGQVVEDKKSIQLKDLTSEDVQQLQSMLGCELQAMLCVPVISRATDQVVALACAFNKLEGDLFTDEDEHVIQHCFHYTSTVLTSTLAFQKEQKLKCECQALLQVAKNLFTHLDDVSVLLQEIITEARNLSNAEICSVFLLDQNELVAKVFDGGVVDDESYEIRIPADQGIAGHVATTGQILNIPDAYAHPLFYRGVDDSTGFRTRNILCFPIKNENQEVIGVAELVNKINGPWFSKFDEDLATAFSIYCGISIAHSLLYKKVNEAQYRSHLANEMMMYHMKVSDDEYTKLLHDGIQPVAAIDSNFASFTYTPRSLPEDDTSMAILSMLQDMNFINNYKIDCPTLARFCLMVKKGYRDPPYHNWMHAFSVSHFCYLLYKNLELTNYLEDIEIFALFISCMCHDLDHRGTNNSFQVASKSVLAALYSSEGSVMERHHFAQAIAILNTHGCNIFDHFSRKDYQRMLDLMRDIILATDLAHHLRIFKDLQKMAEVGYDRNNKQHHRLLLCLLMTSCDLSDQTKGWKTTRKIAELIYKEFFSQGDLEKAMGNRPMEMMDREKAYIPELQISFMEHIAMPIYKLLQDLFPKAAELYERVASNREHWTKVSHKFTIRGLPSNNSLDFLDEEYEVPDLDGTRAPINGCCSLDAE

[12] = target: T1, 3',5'-cyclic-AMP phosphodiesterase 4B; test: Inhibition of PDE4B

SMILES: O=C(N/N=C/c1ccc[nH]1)c1ccc2c(c1)OCO2
inhibition at 200 µM (Aorta [1]): < 50%
inhibition at 200 µM (Aorta [2]): < 50%

IC50 (Aorta [4]): 3.5 µM
IC50 (Aorta [5]): 11.1 µM
SMILES: CN(/N=C/c1ccccc1)C(=O)c1ccc2c(c1)OCO2
Activity (Aorta [3]): Active

IC50 (Aorta [4]): 81 µM
SMILES: O=C(N/N=C/c1ccccc1)c1ccc2c(c1)OCO2
inhibition at 500 µM (Aorta [6]): 70.7%
inhibition at 500 µM (Aorta [7]): < 50%

IC50 (Aorta [4]): 74 µM
Activity [9]: inactive
Activity [10]: inactive
Activity [11]: inactive
SMILES: O=C(N/N=C/c1cccs1)c1ccc2c(c1)OCO2
inhibition at 100 µM (Aorta [8]): < 50%
Activity (Aorta [4]): Dose-dependent effect

IC50 (Aorta [4]): 10.2 µM
IC50 [12]: > 30 µM
Activity [9]: inactive
IC50 (Aorta [5]): 18.5 µM
Activity [11]: inactive
SMILES: CN(/N=C/c1cccs1)C(=O)c1ccc2c(c1)OCO2
Activity (Aorta [4]): Dose-dependent effect

IC50 (Aorta [4]): 40.8 µM
IC50 (Aorta [5]): 15.7 µM
SMILES: CN(/N=C/c1ccco1)C(=O)c1ccc2c(c1)OCO2

SMILES: O=C(N/N=C/c1ccco1)c1ccc2c(c1)OCO2
inhibition at 500 µM (Aorta [6]): < 50%
inhibition at 500 µM (Aorta [7]): < 50%

IC50 (Aorta [4]): 3.1 µM
IC50 (Aorta [5]): 17.8 µM
SMILES: CN(/N=C/c1ccc[nH]1)C(=O)c1ccc2c(c1)OCO2
